Entries after “also recorded” stand apart in the source; their conditions may differ. Where two headings read alike, the source gives them in different places. Marks after values point to notes of the source that are not given here.
How the values were obtained:
[1] = humans, cited from earlier work
[2] = test system: zebrafish embryos; assay: Zebrafish embryo test (ZFET); assay type: in vivo, Danio rerio; settings: for Dysmorphogenic embryos / Morphological score: 50 hpf
Experimental: The day before the test, adult male and female zebrafish were transferred (1:1) to breeding tanks (Aquaneering, San Diego, California). Artificial plants and marbles were used as spawning substrate. Spawning and fertilization took place within 30 min after the onset of light in the morning. Eggs were collected and extensively cleaned with ISO-standard 7346 water diluted 1:5 using deionized water. Fertilized eggs were selected under a dissection stereomicroscope (Motic SMZ168, Motic China group, LTD., China). The eggs presenting overt anomalies like asymmetries, formation of vesicles or damaged membranes were discarded.
Exposure and evaluation of eggs was performed as described before with slight variations. At 2 hours post-fertilization (hpf) fertilized eggs were selected and transferred to 6-well plates (Greiner Bio-one, Germany). Ten embryos were randomly distributed into wells and filled with 5 mL of freshly prepared test solutions. TCBZ, TCBZSO, ABZ and ABZSO were dissolved in DMSO and subsequently diluted in 0.3x Danieau’s buffer to a final DMSO concentration of 0.05% (v/v). Embryos were incubated at 26 ± 1°C with a dark-light cycle of 10–14 h for 48 h. Embryolethality was determined at 8 hpf on the basis of egg coagulation, at 26 hpf by the absence of tail detachment or somites formation, and at 50 hpf by the absence of heartbeat. Developmental and teratogenic effects were assessed at 50 hpf by the total morphological score described in [32].
The working concentrations for ZFET experiments were 0.1 μM, 0.5 μM, 1 μM, 2.5 μM and 5 μM for TCBZ studies and 0.5 μM, 1 μM, 2.5 μM, 5 μM, 10 μM and 50 μM for TCBZSO. The experiments with ABZ were performed including concentrations of 0.025 μM, 0.05 μM, 0.1 μM, 0.3 μM and 0.5 μM and for ABZSO they included 1 μM, 6 μM, 12 μM, 25 μM and 50 μM.

[3] = test system: mouse embryos at the one-cell stage; assay: Preimplantation whole embryo culture (preWEC); design: species or system B6CBAF1 mice; settings: for preWEC LOAEC (lethality): GD 0 to GD 4
Experimental: Female mice (6–12 weeks old) were superovulated by intraperitoneal injections of 5 IU of pregnant mare’s serum gonadotropin (Intervet, Spain) and 5 IU of human chorionic gonadotropin (Farma-Lepori, Spain), 48 h apart, and mated with adult males (2:1). Embryos at the one-cell stage were obtained 24 h after the second injection by tearing the oviducts in Hepes-buffered Chatot Ziomek Bavister medium with 150 U/ml hyaluronidase (HCZB) to dissociate the cumulus cells. Denuded embryos were then washed in HCZB and cultured for 96 h in drops of culture medium, potassium simplex optimized medium (KSOM) under oil at 37°C and 5% CO2, with or without the compounds of study. TCBZ and TCBZSO dissolved in DMSO were diluted in KSOM medium and the final DMSO concentration in the culture medium was […]. Control embryos were cultured in the presence of […]. Embryos were observed under the stereomicroscope every 24 h to assess if they were progressing normally until the blastocyst stage or, otherwise, they were arrested in a previous developmental stage. In each observation the number of embryos at the correct developmental stage (two-cells at 24 h, four-cells at 48 h, morula at 72 h and blastocyst at 96 h) were counted.
TCBZ and TCBZSO concentration ranges for the preWEC study were selected based on the results of the ZFET. The tested concentrations for this technique were 1 μM, 3 μM and 10 μM for TCBZ studies and 3 μM, 10 μM, 30 μM and 100 μM for TCBZSO studies.

Structure (SMILES): CSc1nc2cc(Cl)c(Oc3cccc(Cl)c3Cl)cc2[nH]1 [TCBZ, 5-chloro-6-(2,3-dichlorophenoxy)-2-(methylthio)benzimidazole]
- Cmax ([1]; therapeutical dose of 10 mg/kg TCBZ, reviewed by 22, read-out: TCBZ Cmax in plasma): 1.16 µM
- Frequency of dysmorphogenesis: Developmental delay ([2]; 0.1 µM): 6.7%
- Frequency of dysmorphogenesis: Flexion ([2]; 0.1 µM): 3.3%
- Frequency of dysmorphogenesis: Head-body pigmentation ([2]; 0.1 µM): 6.7%
- Lethality ([2]; 0.1 μM, 2-50 hpf): 0%
- Dysmorphogenic embryos ([2]; 0.1 μM): 6.7%
- Morphological score ([2]; 0.1 μM): 34.8 ± 1.8
- Frequency of dysmorphogenesis: Cardiac oedema ([2]; 0.5 µM): 13.3%
- Lethality ([2]; 0.5 μM, 2-50 hpf): 0%
- Dysmorphogenic embryos ([2]; 0.5 μM): 13.3%
- Morphological score ([2]; 0.5 μM): 34.8 ± 0.0
- Adverse effects in zebrafish embryos ([2]; 1 μM): did not present any adverse effects
- Frequency of dysmorphogenesis: Brain necrosis ([2]; 1 μM): 10%
- Frequency of dysmorphogenesis: Cardiac oedema ([2]; 1 μM): 10%
- Frequency of dysmorphogenesis: Flexion ([2]; 1 μM): 6.7%
- Lethality ([2]; 1 μM, 2-50 hpf): 0%
- Dysmorphogenic embryos ([2]; 1 μM): 13.3%
- Morphological score ([2]; 1 μM): 35.8 ± 0.4
- Frequency of dysmorphogenesis: Developmental delay ([2]; 2.5 µM): 50%
- Frequency of dysmorphogenesis: Flexion ([2]; 2.5 µM): 20%
- Frequency of dysmorphogenesis: Head-body pigmentation ([2]; 2.5 µM): 50%
- Lethality ([2]; 2.5 μM, 2-50 hpf): 0%
- Dysmorphogenic embryos ([2]; 2.5 μM): 60 ^* %
- Morphological score ([2]; 2.5 μM): 33.0 ± 3.4
- Lethality ([2]; 5 μM, 2-50 hpf): 100 ^* %
- ZFET LOAEC dysmorphogenesis ([2]; 2-50 hpf): 2.5 µM
- ZFET LOAEC embryonic differentiation (total morphological score) ([2]; 2-50 hpf): 2.5 μM
- ZFET LOAEC lethality ([2]; 2-50 hpf): 5 µM
- Lethality 2-cells 24 h ([3]; 1 μM): 4.2%
- Lethality 4-cells 48 h ([3]; 1 μM): 8.3%
- Lethality Blastocyst 96 h ([3]; 1 μM): 18.8%
- Lethality Morula 72 h ([3]; 1 μM): 8.3%
- Adverse effects in preimplantation embryos ([3]; 3 μM): did not produce any significant effect
- Lethality 2-cells 24 h ([3]; 3 μM): 6.3%
- Lethality 4-cells 48 h ([3]; 3 μM): 6.3%
- Lethality Blastocyst 96 h ([3]; 3 μM): 20.8%
- Lethality Morula 72 h ([3]; 3 μM): 10.4%
- Lethality 2-cells 24 h ([3]; 10 μM): 18.4 ^* %
- Lethality 4-cells 48 h ([3]; 10 μM): 24.5 ^* %
- Lethality Blastocyst 96 h ([3]; 10 μM): 36.7%
- Lethality Morula 72 h ([3]; 10 μM): 24.5 ^* %
- preWEC LOAEC (lethality) [3]: 10 µM
- Lethal concentration in preimplantation embryos, times higher than in vivo relevant concentrations ([3]; preWEC): 10 times

Structure (SMILES): C[S+]([O-])c1nc2cc(Oc3cccc(Cl)c3Cl)c(Cl)cc2[nH]1 (stereo not drawn) [TCBZSO, Triclabendazole sulfoxide]
- Cmax ([1]; 10 mg/kg TCBZ, depending on concomitant food intake, reviewed by 22, 10 mg/kg, read-out: TCBZSO Cmax in plasma): 38.6 µM
- Cmax ([1]; 10 mg/kg TCBZ, calculated from ref 43, read-out: TCBZSO Cmax in plasma): 26.6 µM
- Lethality ([2]; 0.5 μM, 2-50 hpf): 17%
- Dysmorphogenic embryos ([2]; 0.5 μM): 0%
- Morphological score ([2]; 0.5 μM): 36.0 ± 0.0
- Lethality ([2]; 1 μM, 2-50 hpf): 10%
- Dysmorphogenic embryos ([2]; 1 μM): 0%
- Morphological score ([2]; 1 μM): 36.0 ± 0.0
- Lethality ([2]; 2.5 μM, 2-50 hpf): 20%
- Dysmorphogenic embryos ([2]; 2.5 μM): 0%
- Morphological score ([2]; 2.5 μM): 36.0 ± 0.0
- Lethality ([2]; 5 μM, 2-50 hpf): 7%
- Dysmorphogenic embryos ([2]; 5 μM): 0%
- Morphological score ([2]; 5 μM): 36.0 ± 0.0
- Lethality ([2]; 10 μM, 2-50 hpf): 35 ^* %
- Dysmorphogenic embryos ([2]; 10 μM): 0%
- Morphological score ([2]; 10 μM): 36.0 ± 0.0
- Lethality ([2]; 50 μM, 2-50 hpf): 100 ^* %
- ZFET LOAEC dysmorphogenesis ([2]; 2-50 hpf): No dysmorphogenesis were observed; also recorded: not dysmorphogenic
- ZFET LOAEC lethality ([2]; 2-50 hpf): 10 µM
- ZFET NOAEC ([2]; 2-50 hpf): 5 µM
- Embryolethal concentration, times lower than ABZSO concentrations killing the embryos ([2]; ZFET): five
- Embryolethal concentration, times lower than ABZSO concentrations producing malformations ([2]; ZFET): 2.5 times
- Adverse effects in preimplantation embryos ([3]; 3 μM): did not induce adverse effects
- Lethality 2-cells 24 h ([3]; 3 μM): 4.2%
- Lethality 4-cells 48 h ([3]; 3 μM): 14.6%
- Lethality Blastocyst 96 h ([3]; 3 μM): 31.3%
- Lethality Morula 72 h ([3]; 3 μM): 16.7%
- Lethality 2-cells 24 h ([3]; 10 μM): 24.5 ^* %
- Lethality 4-cells 48 h ([3]; 10 μM): 30.6 ^* %
- Lethality Blastocyst 96 h ([3]; 10 μM): 55.1 ^* %
- Lethality Morula 72 h ([3]; 10 μM): 36.7 ^* %
- Lethality 2-cells 24 h ([3]; 30 μM): 24.5 ^* %
- Lethality 4-cells 48 h ([3]; 30 μM): 79.6 ^* %
- Lethality Blastocyst 96 h ([3]; 30 μM): 98 ^* %
- Lethality Morula 72 h ([3]; 30 μM): 95.9 ^* %
- Lethality 2-cells 24 h ([3]; 100 μM): 100 ^* %
- Lethality 4-cells 48 h ([3]; 100 μM): 100 ^* %
- Lethality Blastocyst 96 h ([3]; 100 μM): 100 ^* %
- Lethality Morula 72 h ([3]; 100 μM): 100 ^* %
- preWEC LOAEC (lethality) [3]: 10 µM

Reference: PMC4368200, “Triclabendazole Sulfoxide Causes Stage-Dependent Embryolethality in Zebrafish and Mouse In Vitro” (PLoS ONE, 2015)
